Laboratory results as given in patent US20050020611A1, “Compounds” (priority 2003, published 2005).

Key:
[1] = system: TNFα release from human peripheral blood mononuclear cells; assay: Inhibition of LPS-stimulated TNFα release from human peripheral blood mononuclear cells (TNFα screen, ELISA); format: cell-based; settings: human PBMC, 18 hours incubation, TNFα in supernatant by ELISA
Protocol: Venous blood is collected from healthy volunteers and the mononuclear cells purified by centrifugation through Histopaque (Ficoll) cushions. TNFα production from these cells is stimulated by addition of lipopolysaccharide. After 18 hours incubation in the presence of LPS, the cell supernatant is removed and the concentration of TNFα in the supernatant determined by ELISA.

PDE4 = PDE4 inhibition: hydrolysis of tritium labelled cAMP to AMP, SPA bead scintillation counting; format: biochemical; settings: 50% reduction in counts compared to PDE4 only control wells
Protocol: The PDE4 inhibitory activity of the nicotinamide derivatives of the formula (I) is determined by the ability of compounds to inhibit the hydrolysis of cAMP to AMP by PDE4 (Thompson J W, Teraski W L, Epstein P M, Strada S J., “Assay of nucleotidephosphodiesterase and resolution of multiple molecular forms of the isoenzyme”, Advances in cyclic nucleotides research, edited by Brooker G, Greengard P, Robinson G A. Raven Press, New York 1979, 10, p. 69-92). Tritium labelled cAMP is incubated with PDE4. Following incubation, the radiolabelled AMP produced is able to bind yttrium silicate SPA beads. These SPA beads subsequently produce light that can be quantified by scintillation counting. The addition of a PDE4 inhibitor prevents the formation of AMP from cAMP and counts are diminished. The IC50 of a PDE4 inhibitor can be defined as the concentration of a compound that leads to a 50% reduction in counts compared to the PDE4 only (no inhibitor) control wells.

SMILES	IC50 [1] [nM]	IC50 (PDE4) [nM]
COc1ccc(C)cc1S(=O)(=O)N[C@H]1CC[C@@H](NC(=O)c2cccnc2OC2CCSCC2)CC1 [Example 27, Syn-N-[4-(2-methoxy-5-methyl-benzenesulfonylamino)-cyclohexyl]-2-(tetrahydro-thiopyran-4-yloxy)-nicotinamide]	5	
COc1ccccc1-c1cc(C(=O)N[C@H]2CC[C@@H](NC(=O)c3cc(F)cnc3OC3CCSCC3)CC2)n[nH]1 [Example 2, Syn-5-Fluoro-N-(4-{[5-(2-methoxy-phenyl)-1H-pyrazole-3-carbonyl]-amino}-cyclohexyl)-2-(tetrahydro-thiopyran-4-yloxy)-nicotinamide]	1.5	
O=C(N[C@H]1CC[C@@H](NC(=O)c2cc(F)cnc2OC2CCSCC2)CC1)c1ccc(O)cc1OCC1CC1 [Example 23]	0.2	
COc1ccc2cccnc2c1S(=O)(=O)N[C@H]1CC[C@@H](NC(=O)c2cccnc2OC2CCSCC2)CC1 [Example 29, Syn-N-[4-(7-methoxy-quinoline-8-sulfonylamino)-cyclohexyl]-2-(tetrahydro-thiopyran-4-yloxy)-nicotinamide]	0.4	
O=C(N[C@H]1CC[C@@H](NC(=O)c2cc(F)cnc2OC2CCSCC2)CC1)c1ccc(O)cc1OC1CCCC1 [Example 24, Syn-N-[4-(2-Cyclopentoxy-4-hydroxy-benzoylamino)-cyclohexyl]-5-fluoro-2-(tetrahydro-thiopyran-4-yloxy)-nicotinamide]	0.1	
Cc1cnc(OC2CCSCC2)c(C(=O)N[C@H]2CC[C@@H](NC(=O)c3ccccc3OCCO)CC2)c1 [Example 13, Syn-N-{4-[2-(2-Hydroxy-ethoxy)-benzoylamino]-cyclohexyl}-5-methyl-2-(tetrahydro-thiopyran-4-yloxy)-nicotinamide]	4	
CCOc1cc(O)ccc1C(=O)N[C@H]1CC[C@@H](NC(=O)c2cc(F)cnc2OC2CCSCC2)CC1 [Example 22, Syn-N-[4-(2-Ethoxy-4-hydroxy-benzoylamino)-cyclohexyl]-5-fluoro-2-(tetrahydro-thiopyran-4-yloxy)-nicotinamide]	0.2	
COc1cc(O)ccc1C(=O)N[C@H]1CC[C@@H](NC(=O)c2cc(F)cnc2OC2CCSCC2)CC1 [Example 1]	0.7	
COc1ccc2cccnc2c1S(=O)(=O)N[C@H]1CC[C@@H](NC(=O)c2cc(F)cnc2OC2CCSCC2)CC1 [Example 28, Syn-5-Fluoro-N-[4-(7-methoxy-quinoline-8-sulfonylamino)-cyclohexyl]-2-(tetrahydro-thiopyran-4-yloxy)-nicotinamide]	0.2	

The remaining compounds from weak to strong by IC50 [1], led by results:

IC50 [1] [nM]	IC50 (PDE4) [nM]	SMILES
0.1		O=C(N[C@H]1CC[C@@H](NC(=O)c2cc(F)cnc2OC2CCSCC2)CC1)c1ccccc1OCCCO [Example 14, Syn-5-Fluoro-N-{4-[2-(3-hydroxy-propoxy)-benzoylamino]-cyclohexyl}-2-(tetrahydro-thiopyran-4-yloxy)-nicotinamide]
0.1	2.8	Cc1cccc(C(=O)N[C@H]2CC[C@@H](NC(=O)c3cc(F)cnc3OC3CCSCC3)CC2)c1OCCO [Example 9]
0.04	5	Cc1ccc(C(=O)N[C@H]2CC[C@@H](NC(=O)c3cc(F)cnc3OC3CCSCC3)CC2)c(OCCO)c1 [Example 10]
0.04	1.5	O=C(N[C@H]1CC[C@@H](NC(=O)c2cc(F)cnc2OC2CCSCC2)CC1)c1ccccc1OCCO [Example 4, Syn-5-Fluoro-N-{4-[2-(2-hydroxy-ethoxy)-benzoylamino]-cyclohexyl}-2-(tetrahydro-thiopyran-4-yloxy)-nicotinamide]
0.02		COc1ccn2ccnc2c1C(=O)N[C@H]1CC[C@@H](NC(=O)c2cc(F)cnc2OC2CCSCC2)CC1 [Example 3, Syn-7-Methoxy-imidazo[1,2-a]pyridine-8-carboxylic acid(4-{[5-fluoro-2-(tetrahydro-thiopyran-4-yloxy)-pyridine-3-carbonyl]-amino}-cyclohexyl)amide]
0.02	1	Cc1ccc(OCCO)c(C(=O)N[C@H]2CC[C@@H](NC(=O)c3cc(F)cnc3OC3CCSCC3)CC2)c1 [Example 5]
